Activity calls are given as the source filed them. The calls are words filed in the database; no cut-off is given here.
Assays:
[1] = test system: Lewis lung carcinoma; experiment: Antitumor activity against mouse LLC allografted in ip dosed C57BL/6 mouse assessed as reduction in tumor volume measured after 7 days; type: functional, organism-based; conditions: dose mg/kg 100-400, time 7.0 day
[2] = Toxicity in C57BL/6 mouse assessed as effect on body weight at 100 to 400 mg/kg, ip measured on day 3; type: organism-based; conditions: in vivo, 72 h, dose 100-400 mg/kg, time 3 day
[3] = Toxicity in C57BL/6 mouse assessed as increase in body weight at 100 to 200 mg/kg, ip measured up to 15 days; type: organism-based; conditions: in vivo, 360 h, dose 100-200 mg/kg, time <=15 day
[4] = Toxicity in C57BL/6 mouse assessed as increase in body weight at 400 mg/kg, ip measured up to 15 days; type: organism-based; conditions: in vivo, 360 h, time <=15 day
[5] = test system: Lewis lung carcinoma; experiment: Antitumor activity against mouse LLC allografted in C57BL/6 mouse assessed as inhibition of tumor growth at 400 mg/kg, ip measured after 7 days; type: functional, organism-based; conditions: time 7.0 day
[6] = test system: Lewis lung carcinoma; experiment: Antitumor activity against mouse LLC allografted in ip dosed C57BL/6 mouse assessed as reduction in tumor growth administered once every other day; type: functional, organism-based; conditions: dose mg/kg 100-400
[7] = test system: Lewis lung carcinoma; experiment: Antitumor activity against mouse LLC allografted in C57BL/6 mouse assessed as reduction in tumor weight at 400 mg/kg, ip administered once every other day; type: functional, organism-based
[8] = Antitumor activity against mouse LLC allografted in C57BL/6 mouse assessed as tumor weight at 100 mg/kg, ip administered once every other day (reference value: 2.74 +/- 0.29 g); type: functional, Lewis lung carcinoma
[9] = Antitumor activity against mouse LLC allografted in C57BL/6 mouse assessed as tumor weight at 200 mg/kg, ip administered once every other day (reference value: 2.74 +/- 0.29 g); type: functional, Lewis lung carcinoma
[10] = Antitumor activity against mouse LLC allografted in C57BL/6 mouse assessed as tumor weight at 400 mg/kg, ip administered once every other day (reference value: 2.74 +/- 0.29 g); type: functional, Lewis lung carcinoma
[11] = Antitumor activity against mouse LLC allografted in C57BL/6 mouse assessed as tumor growth inhibition at 100 mg/kg, ip administered once every other day relative to control; type: functional; conditions: Lewis lung carcinoma, read-out: TGI
[12] = Antitumor activity against mouse LLC allografted in C57BL/6 mouse assessed as tumor growth inhibition at 200 mg/kg, ip administered once every other day relative to control; type: functional; conditions: Lewis lung carcinoma, read-out: TGI
[13] = Antitumor activity against mouse LLC allografted in C57BL/6 mouse assessed as tumor growth inhibition at 400 mg/kg, ip administered once every other day relative to control; type: functional; conditions: Lewis lung carcinoma, read-out: TGI
[14] = test system: Lewis lung carcinoma; experiment: Antitumor activity against mouse LLC allografted in ip dosed C57BL/6 mouse assessed as induction of apoptosis by measuring reduction in number of tumor cells administered every other day by H and E staining based analysis; type: functional, organism-based; conditions: dose mg/kg 100-400
[15] = test system: Lewis lung carcinoma; experiment: Antitumor activity against mouse LLC allografted in ip dosed C57BL/6 mouse assessed as induction of apoptosis by measuring nuclear contraction administered every other day by H and E staining based analysis; type: functional, organism-based; conditions: dose mg/kg 100-400
[16] = test system: Lewis lung carcinoma; experiment: Antitumor activity against mouse LLC allografted in ip dosed C57BL/6 mouse assessed as induction of apoptosis by measuring increase in cell debris content in tumor administered every other day by H and E staining based analysis; type: functional, organism-based; conditions: dose mg/kg 100-400
[17] = test system: Lewis lung carcinoma; experiment: Antitumor activity against mouse LLC allografted in ip dosed C57BL/6 mouse assessed as induction of apoptosis by measuring increase in apoptotic bodies in tumor administered every other day by H and E staining based analysis; type: functional, organism-based; conditions: dose mg/kg 100-400
[18] = test system: Lewis lung carcinoma; experiment: Antitumor activity against mouse LLC allografted in ip dosed C57BL/6 mouse assessed as increase in bax expression administered once every other day by Western blot analysis; type: functional, organism-based; conditions: dose mg/kg 100-400
[19] = test system: Lewis lung carcinoma; experiment: Antitumor activity against mouse LLC allografted in ip dosed C57BL/6 mouse assessed as reduction in bcl2 expression administered once every other day by Western blot analysis; type: functional, organism-based; conditions: dose mg/kg 100-400
[20] = Antitumor activity against mouse LLC allografted in C57BL/6 mouse assessed as bax/bcl2 ratio at 100 mg/kg, ip administered once every other day by Western blot analysis; type: functional, Lewis lung carcinoma
[21] = Antitumor activity against mouse LLC allografted in C57BL/6 mouse assessed as bax/bcl2 ratio at 200 mg/kg, ip administered once every other day by Western blot analysis; type: functional, Lewis lung carcinoma
[22] = Antitumor activity against mouse LLC allografted in C57BL/6 mouse assessed as bax/bcl2 ratio at 400 mg/kg, ip administered once every other day by Western blot analysis; type: functional, Lewis lung carcinoma
[23] = test system: Lewis lung carcinoma; experiment: Antitumor activity against mouse LLC allografted in C57BL/6 mouse assessed as effect on Cyt C protein expression in tumor at 100 to 200 mg/kg, ip administered once every other day by Western blot analysis; type: functional, organism-based; conditions: dose mg/kg 100-200
[24] = test system: Lewis lung carcinoma; experiment: Antitumor activity against mouse LLC allografted in C57BL/6 mouse assessed as Cyt C protein expression level in tumor at 400 mg/kg, ip administered once every other day by Western blot analysis relative to control; type: functional, organism-based
[25] = Upregulation of p53 protein expression in […] LLC allografted C57BL/6 mouse at 400 mg/kg, ip administered once every other day by Western blot analysis relative to control; type: functional
[26] = In vivo activation of p53 in mouse LLC allografted C57BL/6 mouse assessed as reduction in Akt protein expression in tumor at 200 mg/kg, ip administered once every other day by Western blot analysis relative to control; type: functional
[27] = In vivo activation of p53 in mouse LLC allografted C57BL/6 mouse assessed as reduction in 5-lox protein expression in tumor at 400 mg/kg, ip administered once every other day by Western blot analysis relative to control; type: functional
[28] = molecular target: E3 ubiquitin-protein ligase Mdm2 (Mus musculus) (UniProt P23804); experiment: In vivo activation of p53 in mouse LLC allografted C57BL/6 mouse assessed as reduction in MDM2 protein expression in tumor at 100 to 400 mg/kg, ip administered once every other day by Western blot analysis; type: functional, organism-based; conditions: dose mg/kg 100-400
[29] = test system: Mus musculus; experiment: Down regulation of VEGF protein expression in mouse LLC allografted C57BL/6 mouse at 100 mg/kg, ip by Western blot analysis; type: functional, organism-based
[30] = test system: Mus musculus; experiment: Down regulation of VEGF protein expression in mouse LLC allografted C57BL/6 mouse at 200 to 400 mg/kg, ip by Western blot analysis; type: functional, organism-based; conditions: dose mg/kg 200-400
[31] = test system: Mus musculus; experiment: Down regulation of ICAM1 protein expression in mouse LLC allografted C57BL/6 mouse at 100 mg/kg, ip by Western blot analysis; type: functional, organism-based
[32] = test system: Mus musculus; experiment: Down regulation of MMP2 protein expression in mouse LLC allografted C57BL/6 mouse at 200 mg/kg, ip by Western blot analysis; type: functional, organism-based

Chain of E3 ubiquitin-protein ligase Mdm2 (Mus musculus) (P23804 whole entry): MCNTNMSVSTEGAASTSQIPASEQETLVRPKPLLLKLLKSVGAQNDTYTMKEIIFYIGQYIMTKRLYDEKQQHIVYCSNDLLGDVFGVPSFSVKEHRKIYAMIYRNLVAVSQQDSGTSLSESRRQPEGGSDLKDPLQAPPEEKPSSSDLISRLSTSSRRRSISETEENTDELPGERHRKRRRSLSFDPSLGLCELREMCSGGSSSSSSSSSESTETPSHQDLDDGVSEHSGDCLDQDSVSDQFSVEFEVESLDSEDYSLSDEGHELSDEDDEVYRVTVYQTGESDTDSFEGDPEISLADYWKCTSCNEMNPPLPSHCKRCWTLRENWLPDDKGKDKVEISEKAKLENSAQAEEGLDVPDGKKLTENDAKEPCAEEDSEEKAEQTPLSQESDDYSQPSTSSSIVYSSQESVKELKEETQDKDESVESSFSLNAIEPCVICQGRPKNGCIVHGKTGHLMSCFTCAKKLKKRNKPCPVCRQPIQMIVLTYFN

In the case of `CN1C(=O)C2(C(C#N)=C(N)Oc3cc4oc(-c5ccccc5)cc(=O)c4c(O)c32)c2cc(Br)ccc21` (configuration not stated), the Activity [1] is reported as “Dose-dependent effect”, the Activity [2] is reported as “Non-Toxic” and the Activity [3] is reported as “Toxic”. For the same compound, the Activity [4] was “Non-Toxic”, the TGI [5] was “Active” and the Activity [6] was “Dose-dependent effect”. The Activity [7] was “Active”, the Activity [8] was 2.51 g and the Activity [9] was 2.15 g. The Activity [10] was 1.18 g, the inhibition in vivo at 100 mg/kg [11] was 7.45% and the inhibition in vivo at 200 mg/kg [12] was 20%. For the same compound, the inhibition in vivo at 400 mg/kg [13] was 56.9%, the Activity [14] was “Dose-dependent effect” and the Activity [15] was “Dose-dependent effect”. The Activity [16] was “Dose-dependent effect”, the Activity [17] was “Dose-dependent effect” and the Activity [18] was “Dose-dependent effect”. The Activity [19] was “Dose-dependent effect”, the Ratio [20] was 1.29 and the Ratio [21] was 2.23. The Ratio [22] was 4.13, the Activity [23] was “inactive” and the Activity [24] was “Active”. For the same compound, the “fold change (FC)” value [25] was 2.86, the “fold change (FC)” value [26] was 0.59 and the “fold change (FC)” value [27] was 0.4. The Activity [28] was “Active”, the Activity [29] was “inactive” and the Activity [30] was “Active”. For the same compound, the Activity [31] was “Active” and the Activity [32] was “Active”.

Reference: ChEMBL document CHEMBL4725321, “Study on antitumor activities of the chrysin-chromene-spirooxindole on Lewis lung carcinoma C57BL/6 mice in vivo” (Bioorg Med Chem Lett, 2020)
